# Measurements taken from patent US20240277873A1, “ULTRABRIGHT […] PROBES FOR DETECTION AND IMAGING” (Nanyang Technological University, priority 2021, published 2024).
# Target: T1, NE (Homo sapiens, UniProt P08246)
# T1 sequence (P08246 30-267): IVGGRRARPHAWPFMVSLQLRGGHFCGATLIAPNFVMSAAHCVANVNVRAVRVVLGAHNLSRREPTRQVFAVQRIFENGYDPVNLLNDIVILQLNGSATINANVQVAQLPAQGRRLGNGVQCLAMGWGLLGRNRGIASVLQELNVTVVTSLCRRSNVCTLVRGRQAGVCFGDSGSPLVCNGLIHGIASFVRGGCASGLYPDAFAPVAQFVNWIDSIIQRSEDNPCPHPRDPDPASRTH
# Experiment: Chemiluminescence and fluorescence changes of BTPDNe and MPDNe in the presence of NE (response, selectivity, LOD, half-life)
# Type: biochemical
# Protocol: Chemiluminescence and fluorescence changes of BTPDNe (20 μM) were determined in the presence of NE (0.1 U/ml), other different enzymes (˜0.1 U/mL, APN, ALP, Cas-3, cat B, GGT, β-gal and NTR) in 50 mM Tris, 1 M NaCl, 0.05% (w/v) Brij-35, pH 7.5 at 37° C. after 30 min incubation.
# Chemiluminescence and fluorescence changes of BTPDNe and MPDNe (20 μM) in the presence of NE (0.1 U/mL), or other different enzymes (˜0.1 U/mL, APN, ALP, Cas-3, Cat B, GGT, β-gal, NTR, CatG and PR3) were tested after 30 min incubation in 50 mM Tris, 1 M NaCl, 0.05% (w/v) Brij-35, pH 7.5 at 37° C.
# To determine the LOD for NE enzyme detection, the chemiluminescence of BTPDNe was recorded in 50 mM Tris, 1 M NaCl, 0.05% (w/v) Brij-35, pH 7.5 at 37° C. with different concentrations of NE (0, 0.05, 0.1, 0.5, 1, and 2 U/ml) for 30 min incubation. Then, initial reaction velocity was calculated.
smiles,measurement,setting,value
COC1(c2ccc(-c3nc4ccccc4s3)c(OCc3ccc(NC(=O)[C@@H](NC(=O)[C@@H]4CCCN4C(=O)[C@H](C)NC(=O)[C@H](C)NC(C)=O)C(C)C)cc3)c2)OOC12C1CC3CC(C1)CC2C3 (stereo partly drawn) [BTPDNe],selectivity towards NE over other enzymes,"APN, ALP, Cas-3, cat B, GGT, furin, β-gal, NTR, PR3, CatG (~0.1 U/mL)",high selectivity
same,fluorescence increase after incubation with NE,"at 515 nm, probe 20 μM, NE 0.1 U/mL, 30 min",20.1 fold
same,chemiluminescence enhancement after incubation with NE,"probe 20 μM, NE 0.1 U/mL, 50 mM Tris, 1 M NaCl, 0.05% Brij-35, pH 7.5, 37° C., 30 min, BTPDNe at 515 nm, MPDNe at 550 nm",~42.3 fold
